Measurements reported in ChEMBL document CHEMBL5550179, “Rutaecarpine-inspired scaffold-hopping strategy and Ullmann cross-coupling based synthetic approach: Identification of pyridopyrimidinone-indole based novel anticancer chemotypes” (Bioorg Med Chem, 2024).
Activity calls are given as the source filed them. The calls are words filed in the database; no cut-off is given here.

How the values were obtained:
[1] = tested on: NCI-H460; assay: Antiproliferative activity against human NCI-H460 cells; assay type: functional, cell-based
[2] = Selectivity index, ratio of IC50 for antiproliferative activity against human MCF-10A cells to IC50 for antiproliferative activity against human MCF7 cells; assay type: toxicity, cell-based; details: MCF-10A cells and MCF7 cells, read-out: Ratio IC50
[3] = tested on: A549; assay: Antiproliferative activity against human A549 cells assessed as cell growth inhibition incubated for 48 hrs by MTT assay; assay type: functional, cell-based; details: A549, 48 h
[4] = Antiproliferative activity against human MCF-10A cells assessed as cell growth inhibition incubated for 48 hrs by MTT assay; assay type: toxicity, cell-based
[5] = tested on: MCF7; assay: Antiproliferative activity against human MCF7 cells assessed as cell growth inhibition incubated for 48 hrs by MTT assay; assay type: functional, cell-based; details: for IC50: Homo sapiens, MCF7, 48 h
[6] = tested on: HCT-116; assay: Antiproliferative activity against human HCT-116 cells assessed as cell growth inhibition incubated for 48 hrs by MTT assay; assay type: functional, cell-based; details: HCT-116, 48 h
[7] = Antiproliferative activity against human MCF-10A cells assessed as cell viability incubated for 48 hrs by MTT assay relative to control; assay type: toxicity, cell-based; set-up: concentration or dose not given beside the values; details: read-out: Activity
[8] = molecular target: Tubulin; assay: Inhibition of tubulin polymerization (unknown origin); assay type: protein-complex assay, Homo sapiens
[9] = tested on: SW480; assay: Antiproliferative activity against human SW480 cells; assay type: functional, cell-based
[10] = tested on: MGC-803; assay: Antiproliferative activity against human MGC-803 cells; assay type: functional, cell-based
[11] = tested on: A549; assay: Antiproliferative activity against human A549 cells; assay type: functional, cell-based
[12] = tested on: MCF7; assay: Inhibition of cell migration in human MCF7 cells assessed as reduction in migration rate incubated upto 48 hrs by scratch wound healing assay; assay type: functional, cell-based
[13] = tested on: MCF7; assay: Antiproliferative activity against human MCF7 cells assessed as reduction in number of colonies incubated for 48 hrs by crystal violet staining based analysis; assay type: functional, cell-based
[14] = tested on: HCT-116; assay: Antiproliferative activity against human HCT-116 cells; assay type: functional, cell-based
[15] = tested on: MDA-MB-435; assay: Antiproliferative activity against human MDA-MB-435 cells; assay type: functional, cell-based
[16] = tested on: HeLa; assay: Antiproliferative activity against human HeLa cells; assay type: functional, cell-based
[17] = tested on: HL-60; assay: Antiproliferative activity against human HL-60 cells; assay type: functional, cell-based
[18] = tested on: MCF7; assay: Antiproliferative activity against human MCF7 cells; assay type: functional, cell-based
[19] = tested on: ACHN; assay: Antiproliferative activity against human ACHN cells; assay type: functional, cell-based

## O=C(NCCc1c[nH]c2ccccc12)c1ccc(-c2ccccc2)cc1
[1]
  IC50: 2 µM

## COc1ccc2c(c1)c(CCNC(=O)c1ccc(Cl)cc1)c(-c1cc(=O)n3ccccc3n1)n2C(=O)OC(C)(C)C
[2]
  selectivity ratio: > 2.25
[3]
  IC50: 20 µM
[4]
  IC50 at 48 h: > 20 µM
[5]
  IC50: 14 µM
[6]
  IC50: 8.55 µM
[7]
  viability at 48 h: 78.6%

## COc1cc(C2=NN(C(N)=O)C(c3cn(C)c4ccc(Br)cc34)C2)cc(OC)c1OC (centres undefined)
[8]
  IC50: 2.12 µM

## CN1c2ccccc2C(=O)N2CCc3c([nH]c4ccccc34)C21 (centres undefined)
[9]
  IC50: 10 µM
[10]
  IC50: 12 µM
[11]
  IC50: 1.3 µM

## COc1ccc(C(=O)NCCc2c(-c3cc(=O)n4ccccc4n3)n(C(=O)OC(C)(C)C)c3ccccc23)cc1
[2]
  selectivity ratio: > 3.2
[12]
  inhibition: Active
[3]
  IC50: 18.4 µM
[4]
  IC50 at 48 h: > 20 µM
[5]
  IC50: 7.7 µM
[6]
  IC50: 11 µM
[13]
  Activity: Active
[7]
  viability at 48 h: 61.6%

## O=C1c2ccccc2C(=O)N1CCc1c(-c2cc(=O)n3ccccc3n2)[nH]c2ccccc12
[5]
  IC50: > 20 µM

## CC(C)(C)OC(=O)n1c(-c2cc(=O)n3ccccc3n2)c(CCN2C(=O)c3ccccc3C2=O)c2ccccc21
[5]
  IC50: > 20 µM

## O=C1c2cc(Cl)ccc2SC2c3[nH]c4ccc(O)cc4c3CCN12 (centres undefined)
[14]
  IC50: < 0.003 µM
[15]
  IC50: < 0.003 µM

## O=c1c2cc(Cl)ccc2nc2n1CCc1c-2[nH]c2ccccc12
[16]
  IC50: 7 µM

## O=c1c2ccccc2nc2n1CCc1c-2[nH]c2c(Cl)c(Cl)ccc12
[17]
  IC50: 0.15 µM

## COc1ccc2[nH]c(-c3cc(=O)n4ccccc4n3)c(CCNC(=O)c3cc(OC)c(OC)c(OC)c3)c2c1
[5]
  IC50: > 20 µM

## COc1ccc2c(c1)c(CCN1C(=O)c3ccccc3C1=O)c(-c1cc(=O)n3ccccc3n1)n2C(=O)OC(C)(C)C
[5]
  IC50: > 20 µM

## COc1ccc2[nH]c(-c3cc(=O)n4ccccc4n3)c(CCN3C(=O)c4ccccc4C3=O)c2c1
[5]
  IC50: > 20 µM

## O=c1c2ccccc2nc2n1CCc1c-2[nH]c2ccccc12 [RUTAECARPINE]
[2]
  selectivity ratio: 1.2
[3]
  IC50: > 20 µM
[4]
  IC50 at 48 h: > 20 µM
[5]
  IC50: > 20 µM
[16]
  IC50: 26 µM
[7]
  viability at 48 h: 60.2%

## O=c1cc(-c2ccc(Cl)cc2)nc2ccccn12
[18]
  IC50: 1.8 µM

## O=C(NCCc1c(-c2cc(=O)n3ccccc3n2)[nH]c2ccccc12)c1ccc(Cl)cc1
[5]
  IC50: > 20 µM

## CN1c2ccccc2C(=O)N2CCc3c([nH]c4ccc(Cl)cc34)C21 (centres undefined)
[19]
  IC50: 1 µM
[18]
  IC50: 1 µM

## COc1ccc2[nH]c(-c3cc(=O)n4ccccc4n3)c(CCNC(=O)c3ccc(Cl)cc3)c2c1
[5]
  IC50: > 20 µM

## COc1ccc(C(=O)NCCc2c(-c3cc(=O)n4ccccc4n3)[nH]c3ccc(OC)cc23)cc1
[5]
  IC50: > 20 µM

## O=C(O)c1ccccc1C(=O)NCCc1c(-c2cc(=O)n3ccccc3n2)[nH]c2ccccc12
[5]
  IC50: > 20 µM

## CC(C)(C)OC(=O)n1c(-c2cc(=O)n3ccccc3n2)c(CCNC(=O)c2ccc(Cl)cc2)c2ccccc21
[2]
  selectivity ratio: > 2.11
[3]
  IC50: > 20 µM
[4]
  IC50 at 48 h: > 20 µM
[5]
  IC50: 15.8 µM
[6]
  IC50: > 20 µM
[7]
  viability at 48 h: 83.4%

## COc1cc(C(=O)NCCc2c(-c3cc(=O)n4ccccc4n3)[nH]c3ccccc23)cc(OC)c1OC
[5]
  IC50: > 20 µM

## O=c1[nH]cc(F)c(=O)[nH]1 [FLUOROURACIL]
[2]
  selectivity ratio: 3
[3]
  IC50: > 20 µM
[4]
  IC50 at 48 h: 19.5 µM
[5]; time 48 hrs
  IC5: 6.5 µM
[6]
  IC50: > 20 µM
[7]
  viability at 48 h: 50%
